# Experimental data reported in US20110207154A1, “METHOD FOR DETERMINATION OF MARIN[…] AND COMPOUNDS […] SUCH METHOD” (SCOTT & WHITE HEALTHCARE, priority 2010, published 2011).
# Tested on: our antisera (rabbit polyclonal antisera against BSA-MBG conjugate)
# Test: competition ELISA with rabbit polyclonal anti-MBG antisera
# Format: binding
# Conditions: competition assay
# Description: Initially, both BSA and BLG were employed as the carrier protein. In the former case, excess BSA was added to the reaction mixture to inhibit anti-BSA antibodies from binding to the conjugate. When the BLG-marinobufagenin congugate became available, BLG-marinobufagenin was used for antibody detection. This ELISA format was used as the basis for a competitive ELISA for the detection of marinobufagenin in body specimens.
# In an alternative approach, rabbits were immunized with the BSA-MBG conjugate for the production of polyclonal antisera. […] The resulting polyclonal sera were assessed for the presence of MBG-specific antibodies by ELISA (FIG. 11). In this particular format, two of the rabbits produced a strong humoral immune response that allowed dilution of the primary (rabbit) antiserum down to 1 in 4*10^6, even when using a relatively insensitive photometric readout. […] This particular assay has now been equipped with a chemifluorescent readout (using commercially available reagents) and has now reached the target sensitivity of less than 10 pg MBG/ml. As expected, rat urine samples can be measured without prior treatment, but rat plasma and/or serum samples require solid phase extraction using a C8 solid phase and acetonitrile in the mobile phase. Upon drying the eluate of obtained from the extraction cartridge by vacuum centrifugation, MBG can be measured in the circulation of the rat.
structure (smiles),measurement,value
"C[C@]12CC[C@H](O)C[C@H]1CC[C@@H]1[C@@H]2CC[C@]2(C)[C@@H](c3ccc(=O)oc3)C[C@H]3O[C@]132 [RBG, resibufogenin]",cross-reactivity with antisera,only measurable at extremely high doses
